Test results reported in PubChem BioAssay AID250 (DTP/NCI, 2004).
“And” between values parts separate entries of the source, which are not always exact repeats. Identical values can stand only once. Toxic doses and inconclusive results are not listed.

Test system: BDF1 mice, L1210 leukemia sc, survival T/C
Experiment: NCI In Vivo Anticancer Drug Screen. Data for tumor model L1210 Leukemia (subcutaneous) in B6D2F1 (BDF1) mice
Details: endpoint: median survival time, higher = longer survival
Outline: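 Antitumor activity is assessed in mice with transplanted tumors by comparing the treated group (T) with the vehicle control group (C).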

[1] = dose: 108.0 mg/kg/injection, schedule: Q01DX Z (sc), vehicle: methylcellulose (MC)
[2] = dose: 180.0 mg/kg/injection, schedule: Q01DX Z (sc), vehicle: methylcellulose (MC)
[3] = dose: 300.0 mg/kg/injection, schedule: Q01DX Z (sc), vehicle: methylcellulose (MC)
[4] = dose: 500.0 mg/kg/injection, schedule: Q01DX Z (sc), vehicle: methylcellulose (MC)

Structure (SMILES): O=C1CN(CCN2CC(=O)NC(=O)C2)CC(=O)N1
- T/C (dose: 8.4 mg/kg/injection, schedule: Q03HX024 (sc), vehicle: Klucel (hydroxypropylcellulose) (HPC)): 160 % of control
- T/C (dose: 12.5 mg/kg/injection, schedule: Q01DX009 (ip), vehicle: steriod suspending solution): 115 % of control
- T/C (dose: 12.5 mg/kg/injection, schedule: Q01DX009 (sc), vehicle: steriod suspending solution): 110 % of control
- T/C (dose: 23.0 mg/kg/injection, schedule: Q03HX024 (sc), vehicle: Klucel (hydroxypropylcellulose) (HPC)): 165 % of control
- T/C (dose: 25.0 mg/kg/injection, schedule: Q01DX009 (ip), vehicle: steriod suspending solution): 120 % of control
- T/C (dose: 25.0 mg/kg/injection, schedule: Q01DX009 (sc), vehicle: steriod suspending solution): 100 % of control
- T/C (dose: 39.0 mg/kg/injection, schedule: Q03HX024 (sc), vehicle: Klucel (hydroxypropylcellulose) (HPC)): 120 % of control
- T/C (dose: 65.0 mg/kg/injection, schedule: Q03HX024 (sc), vehicle: Klucel (hydroxypropylcellulose) (HPC)): 120 % of control
- T/C (dose: 100.0 mg/kg/injection, schedule: Q01DX009 (ip), vehicle: steriod suspending solution): 165 % of control
- T/C (dose: 100.0 mg/kg/injection, schedule: Q01DX009 (sc), vehicle: steriod suspending solution): 105 % of control and 120 % of control
- T/C (dose: 100.0 mg/kg/injection, schedule: Q04DX003 (ip), vehicle: steriod suspending solution): 105 % of control
- T/C (dose: 100.0 mg/kg/injection, schedule: Q04DX003 (sc), vehicle: steriod suspending solution): 100 % of control and 110 % of control
- T/C (dose: 200.0 mg/kg/injection, schedule: Q01DX009 (ip), vehicle: steriod suspending solution): 100 % of control
- T/C (dose: 200.0 mg/kg/injection, schedule: Q01DX009 (sc), vehicle: steriod suspending solution): 90 % of control
- T/C (dose: 200.0 mg/kg/injection, schedule: Q04DX003 (ip), vehicle: steriod suspending solution): 100 % of control
- T/C (dose: 200.0 mg/kg/injection, schedule: Q04DX003 (sc), vehicle: steriod suspending solution): 105 % of control and 115 % of control
- T/C (dose: 300.0 mg/kg/injection, schedule: Q01DX009 (sc), vehicle: Klucel (hydroxypropylcellulose) (HPC)): 120 % of control
- T/C (dose: 400.0 mg/kg/injection, schedule: Q04DX003 (sc), vehicle: steriod suspending solution): 100 % of control
- T/C (dose: 500.0 mg/kg/injection, schedule: Q01DX009 (sc), vehicle: Klucel (hydroxypropylcellulose) (HPC)): 120 % of control
- T/C (dose: 800.0 mg/kg/injection, schedule: Q04DX003 (sc), vehicle: steriod suspending solution): 100 % of control and 120 % of control

Structure (SMILES): OC(c1ccccc1)c1nc2ccccc2[nH]1 (stereo not drawn)
- T/C [1]: 100 % of control
- T/C [2]: 100 % of control
- T/C [3]: 100 % of control
- T/C [4]: 100 % of control
- T/C (dose: 840.0 mg/kg/injection, schedule: Q01DX Z (sc), vehicle: methylcellulose (MC)): 100 % of control

Structure (SMILES): CC(=O)OCC(=O)[C@@]1(O)CC[C@H]2[C@@H]3CCC4=CC(=O)CC[C@]4(C)[C@@]3(F)[C@@H](O)C[C@@]21C
- T/C (dose: 39.0 mg/kg/injection, schedule: Q01DX Z (sc), vehicle: methylcellulose (MC)): 100 % of control
- T/C (dose: 65.0 mg/kg/injection, schedule: Q01DX Z (sc), vehicle: methylcellulose (MC)): 100 % of control
- T/C [1]: 100 % of control
- T/C [2]: 104 % of control
- T/C [3]: 100 % of control
- T/C [4]: 100 % of control

Structure (SMILES): Nc1n[nH]c(N)n1
- T/C (dose: 125.0 mg/kg/injection, schedule: Q03HX024 (sc), vehicle: none): 110 % of control
- T/C (dose: 180.0 mg/kg/injection, schedule: Q03HX024 (ip), vehicle: water): 116 % of control
- T/C (dose: 180.0 mg/kg/injection, schedule: Q03HX024 (sc), vehicle: water): 122 % of control
- T/C (dose: 250.0 mg/kg/injection, schedule: Q03HX024 (sc), vehicle: none): 120 % of control
- T/C (dose: 250.0 mg/kg/injection, schedule: Q#A X018 (sc), vehicle: none): 120 % of control
- T/C (dose: 432.0 mg/kg/injection, schedule: Q01DX Z (sc), vehicle: water): 104 % of control
- T/C (dose: 500.0 mg/kg/injection, schedule: Q03HX024 (ip), vehicle: water): 177 % of control
- T/C (dose: 500.0 mg/kg/injection, schedule: Q03HX024 (sc), vehicle: water): 166 % of control
- T/C (dose: 500.0 mg/kg/injection, schedule: Q04DX003 (sc), vehicle: none): 110 % of control
- T/C (dose: 500.0 mg/kg/injection, schedule: Q#A X018 (sc), vehicle: none): 160 % of control
- T/C (dose: 720.0 mg/kg/injection, schedule: Q01DX Z (sc), vehicle: water): 109 % of control
- T/C (dose: 1000.0 mg/kg/injection, schedule: Q03HX024 (sc), vehicle: none): 110 % of control
- T/C (dose: 1000.0 mg/kg/injection, schedule: Q04DX003 (sc), vehicle: none): 110 % of control
- T/C (dose: 1000.0 mg/kg/injection, schedule: Q08DX009 (sc), vehicle: none): 150 % of control
- T/C (dose: 1000.0 mg/kg/injection, schedule: Q#A X018 (sc), vehicle: none): 100 % of control
- T/C (dose: 2000.0 mg/kg/injection, schedule: Q01DX Z (sc), vehicle: water): 150 % of control
- T/C (dose: 2000.0 mg/kg/injection, schedule: Q04DX003 (sc), vehicle: none): 115 % of control
- T/C (dose: 2000.0 mg/kg/injection, schedule: Q#A X018 (sc), vehicle: none): 90 % of control
- T/C (dose: 4000.0 mg/kg/injection, schedule: Q04DX003 (sc), vehicle: none): 120 % of control
- T/C (dose: 4000.0 mg/kg/injection, schedule: Q08DX009 (sc), vehicle: none): 150 % of control

Structure (SMILES): CCCCCCOP(=O)(N1CC1)N1CC1
- T/C (dose: 0.65 mg/kg/injection, schedule: Q01DX Z (sc), vehicle: saline): 100 % of control and 110 % of control
- T/C (dose: 1.08 mg/kg/injection, schedule: Q01DX Z (sc), vehicle: saline): 104 % of control and 110 % of control (2×)
- T/C (dose: 23.0 mg/kg/injection, schedule: Q01DX001 (sc), vehicle: saline): 150 % of control
- T/C (dose: 23.0 mg/kg/injection, schedule: Q## X Z (sc), vehicle: saline): 170 % of control
- T/C (dose: 39.0 mg/kg/injection, schedule: Q01DX001 (sc), vehicle: saline): 150 % of control
- T/C (dose: 39.0 mg/kg/injection, schedule: Q## X Z (sc), vehicle: saline): 220 % of control
- T/C (dose: 65.0 mg/kg/injection, schedule: Q01DX001 (sc), vehicle: saline): 170 % of control
- T/C (dose: 65.0 mg/kg/injection, schedule: Q## X Z (sc), vehicle: saline): 160 % of control
- T/C (dose: 108.0 mg/kg/injection, schedule: Q01DX001 (sc), vehicle: saline): 160 % of control
- T/C (dose: 108.0 mg/kg/injection, schedule: Q## X Z (sc), vehicle: saline): 150 % of control
- T/C (dose: 180.0 mg/kg/injection, schedule: Q01DX001 (sc), vehicle: saline): 150 % of control

Structure (SMILES): O=C(Nc1ccc(C2=NCCN2)cc1)c1ccc(C(=O)Nc2ccc(C3=NCCN3)cc2)c([N+](=O)[O-])c1
- T/C (dose: 3.0 mg/kg/injection, schedule: Q01DX Z (sc), vehicle: saline): 100 % of control
- T/C (dose: 5.0 mg/kg/injection, schedule: Q01DX Z (sc), vehicle: saline): 109 % of control
- T/C (dose: 8.4 mg/kg/injection, schedule: Q01DX Z (sc), vehicle: saline): 104 % of control and 109 % of control
- T/C (dose: 14.0 mg/kg/injection, schedule: Q01DX Z (sc), vehicle: saline): 104 % of control
- T/C (dose: 23.0 mg/kg/injection, schedule: Q01DX Z (ip), vehicle: water): 100 % of control
- T/C (dose: 23.0 mg/kg/injection, schedule: Q01DX Z (sc), vehicle: saline): 118 % of control
- T/C (dose: 23.0 mg/kg/injection, schedule: Q01DX Z (sc), vehicle: water): 100 % of control
- T/C (dose: 39.0 mg/kg/injection, schedule: Q01DX Z (ip), vehicle: water): 160 % of control
- T/C (dose: 39.0 mg/kg/injection, schedule: Q01DX Z (sc), vehicle: water): 115 % of control
- T/C (dose: 65.0 mg/kg/injection, schedule: Q01DX Z (ip), vehicle: water): 180 % of control
- T/C (dose: 65.0 mg/kg/injection, schedule: Q01DX Z (sc), vehicle: saline): 114 % of control and 209 % of control
